Values after ≈ are worked out from the molar mass of the structure shown.
Tests used:
HSV-1 = test: HSV Antiviral (ELISA) Assay; assay type: cell-based, herpes simplex virus type 1; details: HSV-1, about 24 hours post-infection; for IC50: Human alphaherpesvirus 1, Vero cells, read-out: IC50 (ug/ml) HSV
Experimental: Vero cells (ATCC #CCL-81) are plated on 96-well tissue culture plates at 3.5×10^4 cells per 100 μl tissue culture DMEM (Dulbecco's modified Eagle media) supplemented with 2% fetal bovine serum (FBS) in each well. After overnight incubation @37° C. (in 5% CO2) and 30 minutes prior to infection with HSV-1 (multiplicity of infection equal to 0.006), cells are either untreated, or treated with test compound (multiple concentrations) or reference standard drug control. After approximately 24 hours post-infection incubation @37° C. (in 5% CO2), cells are fixed for ELISA assay. The primary antibody is murine anti-HSV glycoprotein D monoclonal primary antibody and the secondary antibody is goat anti-mouse IgG linked to β-galactosidase. Thus the extent of viral replication is determined by assessing β-galactosidase activity by quantifying the generation of the 4-methyl umbelliferone fluorescent cleavage product after addition of the methyl umbelliferyl-β-D-galactoside (Sigma #M1633) substrate on a microfluorimeter (365 nm for excitation and 450 nm for emission). Antiviral activity (IC50) of the test compound is determined by comparing the flourescence obtained in absence of compound to that obtained in the presence of compound.

HCMV wild-type = test: HCMV yield assay; assay type: cell-based, human cytomegalovirus; details: human foreskin fibroblasts, reduction of virus yield by 50%; for IC50: Human betaherpesvirus 5, Fibroblast, read-out: IC50 (ug/ml) HCMV
Experimental: Yield assay. Monolayer cultures of human foreskin fibroblasts are infected with HCMV wild-type, typically at a multiplicity of infection equal to 0.2, in the presence of inhibitor compound (varying concentrations). At three days post-infection, total virus produced in these cultures (i.e. virus yield) is assessed by harvesting and titering the virus in 12-well plates of cultured human foreskin fibroblasts (done in the absence of inhibitor). Plaques are quantified at 2 weeks post-infection. An inhibitor of HCMV is identified by the reduction in titer of virus yield in the presence, compared to the titer in the absence of compound. In this assay, the relative anti-HCMV activity of an inhibitor is typically determined by calculating the IC50 or IC90 value, that is, the amount of compound required to reduce the virus yield by 50% or 90%, respectively. Table I describes IC50 data for compounds tested against HCMV.

VZV strain Ellen = test: VZV Antiviral (ELISA) Assay; assay type: cell-based, varicella-zoster virus; details: human foreskin fibroblast cells, three days; for IC50: Human alphaherpesvirus 3, 72 h, read-out: IC50 (ug/ml) VZV
Experimental: For the generation of stock VZV to be used in the assay, VZV strain Ellen (ATCC #VR-1367) is used to infect human foreskin fibroblast (HFF) cells at low multiplicity (less than 0.1) and incubated overnight at 37° C. in 5% CO2. After the overnight incubation, the mixture of uninfected and VZV-infected HFF infected cells are then harvested and added to each well of 96-well plates (3.5×10^4 cells in 100 1μl DMEM supplemented with 2% FBS) which contain test compound or the reference standard drug control (in 100 μl DMEM supplemented with 2% FBS per well). These cells are incubated for three days at 37° C. in 5% CO2, then fixed for ELISA assay. The primary antibody is murine anti-VZV glycoprotein II monoclonal antibody (Applied Biosystems, Inc. #13-145-100) and the secondary antibody is goat anti-mouse IgG linked to β-galactosidase. Thus the extent of viral replication is determined by assessing β-galactosidase activity by quantifying the generation of the 4-methyl umbelliferone fluorescent cleavage product after addition of the methyl umbelliferyl-β-D-galactoside (Sigma #M1633) substrate on a microfluorimeter (365 nm for excitation 450 nm for emission). Antiviral activity (IC50) of the test compound is determined by comparing the flourescence obtained in absence of compound to that obtained the presence of compound.

Compound	IC50 (HSV-1) [µg/mL]	IC50 (HCMV wild-type) [µg/mL]	IC50 (VZV strain Ellen) [µg/mL]	IC50 (ug/ml) HSV (HSV-1; Vero cells) [µg/mL]	IC50 (ug/ml) HCMV (HCMV wild-type) [µg/mL]	% inhibition 10 ug/ml VZV (VZV strain Ellen; 10 ug/ml) [%]	IC50 (ug/ml) VZV (VZV strain Ellen) [µg/mL]
Cc1ccc(S(=O)(=O)n2c(C(C)NC(=S)Nc3ccc(NC(=O)c4ccccc4F)cc3)cc3ccccc32)cc1 (stereo not shown) [Example 1094, 2-Fluoro-N-[4-(3-{1-[1-(toluene-4-sulfonyl)-1H-indol-2-yl]-ethyl}-thioureido)-phenyl]-benzamide]	> 10	> 10	> 7.5	–	–	–	–
CC(NC(=S)Nc1ccc(NC(=O)c2ccccc2F)cc1)c1ccc2ccccc2n1 (stereo not shown) [Example 1095, 2-Fluoro-N-{4-[3-(1-quinolin-2-yl-ethyl)-thioureido]-phenyl}-benzamide]	> 10	2.4 (≈ 5.4 µM)	7.1 (≈ 16 µM)	–	–	–	–
CC(NC(=S)Nc1ccc(NC(=O)c2ccccc2F)cc1)c1ccnc2ccccc12 (stereo not shown) [Example 1096, 2-Fluoro-N-{4-[3-(1-quinolin-4-yl-ethyl)-thioureido]-phenyl}-benzamide]	> 10	5.7 (≈ 12.8 µM)	6.7 (≈ 15.1 µM)	–	–	–	–
CC(NC(=S)Nc1ccc(NC(=O)c2ccccc2F)cc1)c1cc2ccccc2cn1 (stereo not shown) [Example 1097, 2-Fluoro-N-{4-[3-(1-isoquinolin-3-yl-ethyl)-thioureido]-phenyl}-benzamide]	> 10	4 (≈ 9 µM)	5.5 (≈ 12.4 µM)	–	–	–	–
CC(NC(=S)Nc1ccc(NC(=O)c2ccccc2F)cc1)c1nccc2ccccc12 (stereo not shown) [Example 1098, 2-Fluoro-N-{4-[3-(1-isoquinolin-1-yl-ethyl)-thioureido]-phenyl}-benzamide]	9 (≈ 20.2 µM)	3.5 (≈ 7.87 µM)	3.8 (≈ 8.55 µM)	–	–	–	–
CC(NC(=S)Nc1ccc(NC(=O)c2ccccc2F)cc1)c1ccc2ncccc2c1 (stereo not shown) [Example 1099, 2-Fluoro-N-{4-[3-(1-quinolin-6-yl-ethyl)-thioureido]-phenyl}-benzamide]	> 10	5.6 (≈ 12.6 µM)	> 7.5	–	–	–	–
CC(NC(=S)Nc1ccc(NC(=O)c2ccccc2F)cc1)c1cnc2ccccc2c1 (stereo not shown) [Example 1100, 2-Fluoro-N-{4-[3-(1-quinolin-3-yl-ethyl)-thioureido]-phenyl}-benzamide]	> 10	4.6 (≈ 10.3 µM)	7.3 (≈ 16.4 µM)	–	–	–	–
COc1ccccc1C(=O)Nc1ccc(NC(=S)NC(C)c2ccsc2)cc1 (stereo not shown) [Example 1101, 2-Methoxy-N-{4-[3-(1-thiophen-3-yl-ethyl)-thioureido]-phenyl}-benzamide]	> 10	> 10	1 (≈ 2.43 µM)	–	–	–	–
[1,2,3]Thiadiazole-4-carboxylic acid {4-[3-(5-chloro-pyridin-3-yl)-thioureido]-phenyl}-amide [Example 520]	–	–	–	12	0.32	38	>10

From patent US6380243B1, “Aminopyridine-containing thiourea inhibitors of herpes viruses” (American Home Products Corporation, priority 1998, dated 2002)
